Data reported in BindingDB's records for doi:10.1016/j.bmcl.2007.04.053 (Merck Research Laboratories, 2007).
pIC50: −log10 of the molar value.

test: Inhibition of chemotaxis in human MCP1 monocytes

| SMILES | pIC50 |
| --- | --- |
| CC(C)C[C@]1(C(=O)NCc2cc(F)cc(C(F)(F)F)c2)CC[C@@H](N2CC[C@]3(C=Cc4ccccc43)[C@@H](C)C2)C1 [(1R,3R)-N-{[3-fluoro-5-(trifluoromethyl)phenyl]methyl}-1-(2-methylpropyl)-3-[(1S,5'R)-5'-methylspiro[indene-1,4'-piperidine]-1'-yl]cyclopentane-1-carboxamide] | 9.49 |
| C[C@H]1CN([C@@H]2CC[C@@](C(=O)NCc3cc(F)cc(C(F)(F)F)c3)(C3CC3)C2)CC[C@]12C=Cc1ccccc12 [(1S,3R)-1-cyclopropyl-N-{[3-fluoro-5-(trifluoromethyl)phenyl]methyl}-3-[(1S,5'R)-5'-methylspiro[indene-1,4'-piperidine]-1'-yl]cyclopentane-1-carboxamide] | 9.64 |
| CC(C)[C@]1(C(=O)NCc2cc(F)cc(C(F)(F)F)c2)CC[C@@H](N2CC[C@]3(C=Cc4ccccc43)[C@@H](C)C2)C1 [(1S,3R)-N-{[3-fluoro-5-(trifluoromethyl)phenyl]methyl}-3-[(1S,5'R)-5'-methylspiro[indene-1,4'-piperidine]-1'-yl]-1-(propan-2-yl)cyclopentane-1-carboxamide] | 9.82 |
